Test results as given in the supplement of paper PMC10949913.

What was measured:
Experiment in all cases: area under concentration-response curve (viability) (AUC (a.u.)); higher = less active
Conditions in all cases: 48 h
[1] = system: CU-ACC2
Method in brief: (§1)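 Three adrenocortical carcinoma cell lines in 1,536-well plates received 23 nL of each library compound at 11 concentrations and were read with CellTiter-Glo after 48 h, with 15 minutes at room temperature before measuring luminescence. Vehicle and empty-well controls served for per-plate normalisation. AC50 and area under the curve were extracted from fitted concentration-response curves, discarding all curve classes other than inhibitory or non-responding.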

[2] = system: CU-ACC1
Method in brief: as §1

[3] = system: NCI-H295R
Method in brief: as §1

C[C@]1(C(=O)N(CCCC(=O)O)Cc2cccc(Cl)c2)CCN1C(=O)c1csc2ccccc12
area under concentration-response curve [1]: 584
area under concentration-response curve [2]: 490
area under concentration-response curve [3]: 532

CN[C@@H]1Cc2cccc3[nH]c(=O)n(c23)C1
area under concentration-response curve [1]: 659
area under concentration-response curve [2]: 576
area under concentration-response curve [3]: 590

CN[C@@H]1[C@H](O[C@H]2[C@H](O[C@@H]3[C@@H](O)[C@H](O)[C@@H](NC(=N)N)[C@H](O)[C@H]3NC(=N)N)O[C@@H](C)[C@]2(O)C=O)O[C@@H](CO)[C@H](O)[C@H]1O
area under concentration-response curve [1]: 606
area under concentration-response curve [2]: 516
area under concentration-response curve [3]: 553

COC(=O)[C@@H](N)CCCNC(=N)N[N+](=O)[O-]
area under concentration-response curve [1]: 610
area under concentration-response curve [2]: 520
area under concentration-response curve [3]: 557

CN1C(=O)/C=C(/NCCN(CCO)CCCC2=CC=C(C=C2)[N+]([O-])=O)N(C)C1=O
area under concentration-response curve [1]: 643
area under concentration-response curve [2]: 544
area under concentration-response curve [3]: 586

CN\1N(C(=O)\C(=C1C)C(=O)NC2=CC=C(OC3=CC=NC4=C3C(=C[NH]4)C5=CC=CC=C5)C(=C2)F)C6=CC=C(F)C=C6
area under concentration-response curve [1]: 525
area under concentration-response curve [2]: 522
area under concentration-response curve [3]: 535

C[C@]12CC[C@H]3[C@@H](CCC/4=C/C(=O)CC[C@]34C)[C@@H]1CC[C@@H]2OC(=O)CCC5CCCC5
area under concentration-response curve [1]: 618
area under concentration-response curve [2]: 581
area under concentration-response curve [3]: 569

Oc1cc(O)cc(/C=C/c2ccc(O)c(O)c2)c1
area under concentration-response curve [1]: 511
area under concentration-response curve [2]: 519
area under concentration-response curve [3]: 525

CC(=O)NCCC(=O)N[C@@H](CCC(N)=O)C(=O)N[C@@H](CO)C(=O)N[C@@H](CCC(N)=O)C(=O)N[C@@H](CCC(N)=O)C(=O)N[C@H](C(=O)N[C@@H](Cc1ccccc1)C(=O)N[C@]1(C)CCCCCC/C=C\CCC[C@@](C)(C(=O)N[C@@H](CCC(N)=O)C(=O)N[C@@H](CC(N)=O)C(N)=O)NC(=O)[C@H](CC(C)C)NC(=O)[C@H](CC(C)C)NC(=O)[C@@H](CCCNC(=N)N)NC(=O)[C@H](Cc2c[nH]c3ccccc23)NC(=O)[C@H](CC(C)C)NC(=O)[C@H](CC(N)=O)NC1=O)[C@H](C)O
area under concentration-response curve [1]: 575
area under concentration-response curve [2]: 425
area under concentration-response curve [3]: 546

COC1=CC=C(Cl)C=C1\C2=C\C(=O)NC(=S)N2CC(N)=O
area under concentration-response curve [1]: 580
area under concentration-response curve [2]: 448
area under concentration-response curve [3]: 556

FC1=CC=C(C=C1)N2/C=C\C=C(C(=O)NC3=CC=C(OC4=C5C=C[NH]C5=NC=C4)C(=C3)F)/C2=O
area under concentration-response curve [1]: 616
area under concentration-response curve [2]: 588
area under concentration-response curve [3]: 535

NC[C@H]1O[C@H](O[C@H]2[C@H](O)[C@@H](O[C@H]3O[C@H](CO)[C@@H](O)[C@H](N)[C@H]3O)[C@H](N)C[C@@H]2N)[C@H](N)C[C@@H]1O
area under concentration-response curve [1]: 579
area under concentration-response curve [2]: 486
area under concentration-response curve [3]: 535

NC(=O)NO
area under concentration-response curve [1]: 590
area under concentration-response curve [2]: 503
area under concentration-response curve [3]: 511

Cc1nc2c([nH]1)-c1ccccc1N(C(=O)c1ccc(NC(=O)c3ccccc3-c3ccccc3)cc1)CC2
area under concentration-response curve [1]: 542
area under concentration-response curve [2]: 437
area under concentration-response curve [3]: 487

COC(=O)/C=C/C(=O)OC
area under concentration-response curve [1]: 608
area under concentration-response curve [2]: 525
area under concentration-response curve [3]: 550

CC(C)(Sc1cc(C(C)(C)C)c(O)c(C(C)(C)C)c1)Sc1cc(C(C)(C)C)c(O)c(C(C)(C)C)c1
area under concentration-response curve [1]: 652
area under concentration-response curve [2]: 550
area under concentration-response curve [3]: 601

O=C(C[C@@H]1C/C=C\CCC(=O)O[C@H](c2ccccc2)CNC1=O)NCc1ccc(Cl)cc1
area under concentration-response curve [1]: 620
area under concentration-response curve [2]: 526
area under concentration-response curve [3]: 569

CCOC(=O)[C@H](CCc1ccccc1)N[C@H]1CS[C@H](c2cccs2)CN(CC(=O)O)C1=O.Cl
area under concentration-response curve [1]: 584
area under concentration-response curve [2]: 513
area under concentration-response curve [3]: 541

Nc1nc(F)nc2c1ncn2[C@@H]1O[C@H](CO)[C@@H](O)[C@@H]1O
area under concentration-response curve [1]: 577
area under concentration-response curve [2]: 528
area under concentration-response curve [3]: 510

C[C@@H]1O[C@@H](O[C@@H]2\C=C/C=C\C=C/C=C\C[C@H](C)OC(=O)/C=C\[C@H]3O[C@@H]3C[C@H](O)C[C@]3(O)C[C@@H](O)[C@@H](C(=O)O)[C@H](C2)O3)[C@H](O)[C@H](N)[C@@H]1O
area under concentration-response curve [1]: 572
area under concentration-response curve [2]: 395
area under concentration-response curve [3]: 573

O=C(Nc1ccccc1)Nc1ccc(-c2ccc(C(=O)[C@@H]3CCC[C@H]3C(=O)O)cc2)cc1
area under concentration-response curve [1]: 472
area under concentration-response curve [2]: 481
area under concentration-response curve [3]: 441

NCC1(CC(=O)O)CCCCC1
area under concentration-response curve [1]: 403
area under concentration-response curve [2]: 315
area under concentration-response curve [3]: 412

O=C1CCC[C@@H]2[C@H]3CCC[N+]4([O-])CCC[C@@H](CN12)[C@@H]34 (stereo partly specified)
area under concentration-response curve [1]: 610
area under concentration-response curve [2]: 536
area under concentration-response curve [3]: 552

CCOC(=O)/C=C/[C@H](C[C@@H]1CCNC1=O)NC(=O)[C@@H](CC(=O)[C@@H](NC(=O)c1cc(C)on1)C(C)C)Cc1ccc(F)cc1
area under concentration-response curve [1]: 523
area under concentration-response curve [2]: 530
area under concentration-response curve [3]: 539

N#C[C@@H]1C[C@@H]2C[C@@H]2N1C(=O)[C@@H](N)C12CC3CC(CC(O)(C3)C1)C2
area under concentration-response curve [1]: 598
area under concentration-response curve [2]: 500
area under concentration-response curve [3]: 517

O=C(NCCCNc1nc(Nc2cccc(NC(=O)N3CCCC3)c2)ncc1I)c1cccs1
area under concentration-response curve [1]: 482
area under concentration-response curve [2]: 498
area under concentration-response curve [3]: 539

CCOC(=O)[C@H](CCc1ccccc1)N[C@H]1CCc2ccccc2N(CC(=O)O)C1=O
area under concentration-response curve [1]: 592
area under concentration-response curve [2]: 492
area under concentration-response curve [3]: 520

OC(Cn1cncn1)(Cn1cncn1)c1ccc(F)cc1F
area under concentration-response curve [1]: 546
area under concentration-response curve [2]: 466
area under concentration-response curve [3]: 514

C/C1=C2/[N]3[Co+]456([OH])<-[N]7=C1[C@@H](CCC(N)=O)C(C)(C)/C7=C/C1=[N]->4C(=C(/C)C4=[N]->5[C@@](C)([C@H]3[C@H](CC(N)=O)[C@@]2(C)CCC(=O)NC[C@@H](C)OP(=O)([O-])O[C@H]2[C@@H](O)[C@@H](n3c[n]->6c5cc(C)c(C)cc53)O[C@@H]2CO)[C@@](C)(CC(N)=O)[C@@H]4CCC(N)=O)/[C@@](C)(CC(N)=O)[C@@H]1CCC(N)=O
area under concentration-response curve [1]: 595
area under concentration-response curve [2]: 495
area under concentration-response curve [3]: 564

CC1=CC=CC=C1N2\C(=N/C3=C(C(=CC=C3)C)C2=O)C[N]4C=NC5=C4N=CN=C5N
area under concentration-response curve [1]: 643
area under concentration-response curve [2]: 555
area under concentration-response curve [3]: 583

CN1C(=O)C(=C\C2=C1N=C(NC3=CC=CC(=C3)C(O)=O)N=C2)/C4=C(Cl)C=CC=C4Cl
area under concentration-response curve [1]: 528
area under concentration-response curve [2]: 515
area under concentration-response curve [3]: 483

C[C@H]1C[C@H]2[C@@H]3CC\C4=C\C(=O)\C=C/[C@]4(C)[C@H]3C(=O)C[C@]2(C)[C@@]1(O)C(=O)CO
area under concentration-response curve [1]: 618
area under concentration-response curve [2]: 511
area under concentration-response curve [3]: 488

CC(N)C12CC3CC(CC(C3)C1)C2 (stereo unspecified)
area under concentration-response curve [1]: 523
area under concentration-response curve [2]: 507
area under concentration-response curve [3]: 494

CC[C@]12CC[C@H]3[C@@H](CCC/4=C/C(=O)CC[C@H]34)[C@@H]1CC[C@@]2(O)C#C
area under concentration-response curve [1]: 614
area under concentration-response curve [2]: 519
area under concentration-response curve [3]: 575

CCCc1nc(C(C)(C)O)c(C(=O)O)n1Cc1ccc(-c2ccccc2-c2nn[nH]n2)cc1
area under concentration-response curve [1]: 521
area under concentration-response curve [2]: 436
area under concentration-response curve [3]: 462

CCOC(=O)N1CCN(/[N+]([O-])=N/Oc2ccc([N+](=O)[O-])cc2[N+](=O)[O-])CC1
area under concentration-response curve [1]: 644
area under concentration-response curve [2]: 544
area under concentration-response curve [3]: 521

CN(C(=O)CNC(=O)/C=C/c1cccc(Cl)c1)C1CC[S+](=O)([O-])CC1 (stereo unspecified)
area under concentration-response curve [1]: 540
area under concentration-response curve [2]: 479
area under concentration-response curve [3]: 465

CC1=C(C)C\2=C(S1)[N]3C(=NN=C3[C@H](CC(N)=O)\N=C2C4=CC=C(Cl)C=C4)C
area under concentration-response curve [1]: 538
area under concentration-response curve [2]: 516
area under concentration-response curve [3]: 452

CCNC(=O)Nc1ccc(Oc2ncnc(N)c2/C=N/OC)cc1Cl
area under concentration-response curve [1]: 645
area under concentration-response curve [2]: 509
area under concentration-response curve [3]: 567

Nc1cc(c(cc1S(=O)(N)=O)S(N)(=O)=O)C(/Cl)=C(/Cl)Cl
area under concentration-response curve [1]: 590
area under concentration-response curve [2]: 505
area under concentration-response curve [3]: 531

FC(F)(F)c1ccc(CNc2ccc(Cc3c[nH]c4ncc(Cl)cc34)cn2)cn1
area under concentration-response curve [1]: 630
area under concentration-response curve [2]: 555
area under concentration-response curve [3]: 582

OC(c1ccc(-c2ccc(CN3CCN(Cc4ccncc4)CC3)cc2)c(F)c1)(C(F)(F)F)C(F)(F)F
area under concentration-response curve [1]: 638
area under concentration-response curve [2]: 584
area under concentration-response curve [3]: 581
